One assay has as its system PfCRT variant E207F. Put plainly: CQ uptake assay, oocytes expressing E207F. It is filed as cell-based, Plasmodium falciparum. How it is done:
(§1) Site-directed mutagenesis of PfCRT^Dd2 was performed as described using the megaprimer method with overlap extension[21],[54]. The primer pairs used are listed in Supplementary Table 6. Please note that a codon-optimized and oocyte-adapted version of PfCRT^Dd2 was used[22] (Supplementary Fig. 16). The resulting DNA fragment was cloned into the SP64T expression vector and verified by sequencing.
(§2) Oocytes were obtained as described previously. Briefly, adult (>2 years old) female X. laevis frogs (NASCO) were anesthetized in a cooled solution of ethyl 3-amino benzoate methanesulfonate (0.1%, w/v), followed by a surgical removal of parts of the ovary. The ovary lobes were carefully dissected and small pieces of oocytes were incubated in Ca^2+-free ND96 buffer (96 mM NaCl, 2 mM KCl, 1 mM MgCl2 buffered with 5 mM HEPES/NaOH, pH 7.5) supplemented with collagenase D (0.1%, w/v; Roche), BSA (0.5%, w/v), and 9 mm Na2HPO4 at 18 °C for 14-16 h while gentle shaking. After incubation, the oocytes were carefully washed several times with ND96 buffer (96 mM NaCl, 2 mM KCl, 1.8 mM CaCl2, 1 mM MgCl2 buffered with 5 mM HEPES/NaOH, pH 7.5) supplemented with 100 mg l^−1 gentamycin). Defolliculated and healthy-looking stage V-VI oocytes were manually selected for RNA microinjection. The RNA was generated as following: The codon-optimized sequences of PfCRT variants were cloned into the pSP64T expression vector. After vector linearization using the restriction endonucleases BamHI or SalI (New England Biolabs), transcription was performed using the in vitro SP6 mMessage mMachine Kit (Ambion)[34]. The obtained RNA was kept at −80 °C and diluted with nuclease-free water to a concentration of 0.6 μg μl^−1. Precision-bore glass capillary tubes (3.5-inch glass capillaries; Drummond Scientific Co.) were pulled on a vertical puller (P-87 Flaming/Brown micropipette puller, Sutter Instrument Co.), graduated, and placed on a microinjector (Nanoject II Auto-Nanoliter Injector, Drummond Scientific Co.). 50 nl of nuclease-free water alone (control oocytes) or 50 nl of 0.6 μg μl^−1 RNA were injected under stereomicroscopic control. Injected oocytes were incubated for 46–72 h at 18 °C with twice-daily buffer changes before usage in experiments.
Drug uptake assays were performed as described previously[21],[22],[24],[34]. […] The direction of radio-labeled drug transport is here from the mostly acidic extracellular solution (pH 4.5 or 6.0, as indicated) into the oocyte cytosol (pH ∼ 7.2), which corresponds to the efflux of drug from the acidic digestive vacuole (pH 5.2) into the parasite cytoplasm (pH 7.2). The topology of PfCRT in the oolemma is such that both the N- and C-terminus face the extracellular milieu[3],[22]. In the parasite, the N- and C-terminus face the lumen of the digestive vacuole. CQ uptake kinetics were performed by incubating oocytes in ND96 buffer adjusted to a pH of 4.5, 5.0, 5.5, or 6.0 and supplemented with 50 nM [^3H]CQ and one of 7 different CQ concentrations (10 µM, 50 µM, 100 µM, 200 µM, 300 µM, 400 µM, 500 µM CQ). The reaction was stopped at the 60 min time point, which is in the linear uptake range[22],[34] (Supplementary Fig. 17). For determination of the amount of drug uptake for each oocyte, the reaction medium was removed and the oocytes were washed three times with 2 ml of ice-cold ND96 buffer. Each oocyte was individually transferred to a scintillation vial containing 5% sodium dodecyl sulfate (200 μl) for lysis. The radioactivity of each sample was measured using a liquid scintillation analyzer Tri-Carb 4910 TR (PerkinElmer). Oocytes that were injected with water instead of RNA were analyzed in parallel, representing the uptake of a drug by diffusion and/or endogenous permeation pathways. The resulting value represents the “background“ level of drug accumulation in oocytes (in-depth discussion in[22]). […]

In a further assay the test system is PfCRT variant E207W. Put plainly: CQ uptake assay, oocytes expressing E207W. It is filed as cell-based, Plasmodium falciparum. How it is done: as §1, §2
Drug uptake assays were performed as described previously[21],[22],[24],[34]. […] The direction of radio-labeled drug transport is here from the mostly acidic extracellular solution (pH 4.5 or 6.0, as indicated) into the oocyte cytosol (pH ∼ 7.2), which corresponds to the efflux of drug from the acidic digestive vacuole (pH 5.2) into the parasite cytoplasm (pH 7.2). The topology of PfCRT in the oolemma is such that both the N- and C-terminus face the extracellular milieu[3],[22]. In the parasite, the N- and C-terminus face the lumen of the digestive vacuole. […] For determination of the amount of drug uptake for each oocyte, the reaction medium was removed and the oocytes were washed three times with 2 ml of ice-cold ND96 buffer. Each oocyte was individually transferred to a scintillation vial containing 5% sodium dodecyl sulfate (200 μl) for lysis. […] Oocytes that were injected with water instead of RNA were analyzed in parallel, representing the uptake of a drug by diffusion and/or endogenous permeation pathways. The resulting value represents the “background“ level of drug accumulation in oocytes (in-depth discussion in[22]). The specific PfCRT-mediated uptake was determined by subtracting the corresponding background value measured in water-injected oocytes from that of PfCRT-expressing oocytes. In all cases, at least three separate experiments were performed on oocytes from different frogs (biological replicate), and for each condition in an experiment, measurements were made from 10 oocytes per treatment. For pH 5.5, 6.0, and 6.5, ND96 was buffered with 5 mM MES/Tris base.

The mark [1] stands for this setting: E207F, 50 µM CQ, 1 h, mean ± SEM.
Setting [2] is: pH 4.5, individual replicates, Fig 6b.
The mark [3] stands for this setting: pH 6.0, individual replicates, Fig 6b.
[4] abbreviates: ratio of activity pH 4.5 / pH 6.0.
The mark [5] stands for this setting: E207W, 50 µM CQ, 1 h, mean ± SEM.

This is an account of results in paper PMC10349806 (Nature Communications, 2023).

Where “and” joins values, the source holds several entries; their conditions need not be identical. Equal entries are not always repeated.

In the case of `CCN(CC)CCCC(C)Nc1ccnc2cc(Cl)ccc12` (stereo not drawn) [CQ, chloroquine], the “Activity at pH 4.5” value in the assay with PfCRT variant E207F (setting [1]) came to 2.67 ± 0.27 pmol h-1 oocyte-1; in the assay on PfCRT variant E207W (setting [5]), 2.40 ± 0.17 pmol h-1 oocyte-1. Further, the “Activity at pH 6.0” value was 3.27 ± 0.42 pmol h-1 oocyte-1 with PfCRT variant E207F (setting [1]) and 3.18 ± 0.35 pmol h-1 oocyte-1 in the assay on PfCRT variant E207W (setting [5]). The R-value stood at 0.84 ± 0.09 in the assay with PfCRT variant E207F (E207F, CQ transport at pH 4.5 / pH 6.0) and 0.78 ± 0.06 in the assay with PfCRT variant E207W (E207W, CQ transport at pH 4.5 / pH 6.0). For the same molecule, the “E207F transport activity pH 4.5” value in the assay with PfCRT variant E207F (setting [2]) is 3.33 pmol oocyte-1 h-1 and 3.06 pmol oocyte-1 h-1 and 2.01 pmol oocyte-1 h-1 and 2.27 pmol oocyte-1 h-1. Further, the “E207F transport activity pH 6.0” value in the assay with PfCRT variant E207F (setting [3]) is 2.89 pmol oocyte-1 h-1 and 4.68 pmol oocyte-1 h-1 and 2.46 pmol oocyte-1 h-1 and 3.03 pmol oocyte-1 h-1. In addition, the “E207F R-value” in the assay on PfCRT variant E207F (setting [4]) was 1.15 and 0.65 and 0.82 and 0.75. Further, the “E207W transport activity pH 4.5” value in the assay with PfCRT variant E207W (setting [2]) was 2.68 pmol oocyte-1 h-1 and 2.94 pmol oocyte-1 h-1 and 1.91 pmol oocyte-1 h-1 and 1.82 pmol oocyte-1 h-1 and 2.34 pmol oocyte-1 h-1. Moreover, the “E207W transport activity pH 6.0” value in the assay on PfCRT variant E207W (setting [3]) is 2.46 pmol oocyte-1 h-1 and 4.37 pmol oocyte-1 h-1 and 2.52 pmol oocyte-1 h-1 and 2.14 pmol oocyte-1 h-1 and 3.58 pmol oocyte-1 h-1 and 4.02 pmol oocyte-1 h-1. Further, the “E207W R-value” in the assay on PfCRT variant E207W (setting [4]) was 0.67 and 0.76 and 0.85 and 0.65.
